# Where two headings read alike, the source gives them in different places.
# Columns and labels:
# [1] = Particle size of nucleic acid lipid particles (Luc2-siRNA); type: physicochemical; details: compound/DSPC/cholesterol/DMG-PEG2000 50/10/38.5/1.5
# Experimental: By using the dispersion liquid of lipid particles as it was, the particle size of the lipid particles was measured using a zeta potential/particle size measurement system ELS-Z2 (Otsuka Electronics Co., Ltd.).
# (§1) The compounds described in Table 2, L-α-distearoylphosphatidylcholine (trade name: COATSOME® MC-8080; NOF corporation), cholesterol (trade name: Choesterol HP; NIPPON FINE CHEMICAL CO., LTD.), and 1,2-dimyristoyl-rac-glycero-3-(methylpolyoxyethylene 2000) (hereinafter, called DMG-PEG2000) (trade name: SUNBRIGHT® GM-020; NOF corporation) were dissolved in ethanol at a molar ratio of 50/10/38.5/1.5 such that the total lipid concentration became 20 mmol/L, thereby obtaining an oil phase.
# (§2) An aqueous nucleic acid solution obtained by dissolving 5 mg of Luc2-siRNA having the sequence described in Biomacromolecules (2013) 14, p. 3905 in 1 mL of sterile water was diluted with 10 mmol/L acetate buffer having a pH 4 such that the nucleic acid concentration became 19.7 μmol/L, thereby obtaining a water phase. Then, the water phase and the oil phase were mixed together by a micromixer (see JP5288254B) using a syringe pump such that the volume ratio of water phase:oil phase became 3:1 (final ratio of siRNA/lipid=339 (mol/mol)), and the mixed solution was diluted 2× with PBS, thereby obtaining a dispersion liquid of nucleic acid lipid particles. The dispersion liquid was dialyzed (Slide-A-Lyzer G2, MWCO: 10 kD, Thermo Fisher Scientific) using a phosphate buffered saline such that ethanol was removed, thereby obtaining nucleic acid lipid particles.
# The particle size of the nucleic acid lipid particles was measured by the same method as that in <Preparation of lipid particles>.
# [2] = Encapsulation rate of siRNA in nucleic acid lipid particles (Luc2-siRNA); type: physicochemical; details: compound/DSPC/cholesterol/DMG-PEG2000 50/10/38.5/1.5
# Experimental: as §1, §2
# A 3 mol/L aqueous sodium acetate solution (30 μL) and 9 μL of glycogen were added to 60 μL of the lipid particles retaining nucleic acids, and then 1.5 mL of ethanol was added thereto such that only the nucleic acids were precipitated while the lipid was dissolved. Then, the supernatant was removed by centrifugation. After the precipitates were air-dried for 15 minutes or longer, water was added thereto such that the precipitates were redissolved, and the concentration thereof was measured using Nanodrop NF1000 (Thermo Fisher Scientific), thereby quantifying the total nucleic acid concentration.
# The nucleic acid concentration was quantified using a Quant-iT RiboGreen RNA Assay Kit (Thermo Fisher Scientific) according to the protocol. First, a 20×TE buffer included in the above kit was diluted with water, thereby obtaining a 1×TE buffer. TE represents Tris/EDTA (ethylenediaminetetraacetic acid). In order to quantify only the nucleic acid in the outer water phase, the dispersion liquid of lipid particles retaining nucleic acids was diluted 10,000× with the 1×TE buffer.
# The 10,000× diluted dispersion liquid of lipid particles (100 μL) was put in a 96-well plate, then 100 μL of a RiboGreen reagent (reagent included in the Quanti-iT Ribogreen RNA Assay Kit described above) diluted 2000× with the 1×TE buffer was added to a sample, and fluorescence (excitation wavelength: 485 nm, fluorescence wavelength: 535 nm) was measured using a plate reader Infinit EF200 (TECAN), thereby quantifying the nucleic acid concentration in the outer water phase.
# By using the total nucleic acid concentration obtained through the above steps and the quantified nucleic acid concentration in the outer water phase, the nucleic acid encapsulation rate of the nucleic acid lipid particles was calculated according to the following Equation. Nucleic acid encapsulation rate (%)=(total nucleic acid concentration−nucleic acid concentration in outer water phase)/total nucleic acid concentration×100 The results are shown in Table 2.
# [3] = tested on: DMS273 cells constantly expressing Luc; assay: Target reporter protein (Luc) knockdown in cell, reporter protein assay; type: cell-based; details: Homo sapiens, DMS-273
# Experimental: The nucleic acid lipid particles prepared by the same method as that in <Preparation of nucleic acid lipid particles> by using the compounds described in Table 3 were evaluated by reporter assay by the following method.
# By using pGL4.50 Luc2 (E1310 Promega), DMS273 cells (human small cell lung cancer) (European Collection of Authenticated Cell Cultures) constantly expressing Luc were prepared. RPMI (Gibco) (10% FBS (Gibco), 1% Penicillin-Streptomycin (Gibco), and 200 μg/mL Hygromycin (Wako)) was used as a culture medium. DMS273 cells (2.0×10^3) constantly expressing luciferase (Luc) were seeded in a 96-well plate and cultured in a 5% CO2 incubator for 24 hours, and then the medium was replaced. Then, 10 μL of each of the dispersion liquids of lipid particles diluted with PBS (Gibco) to yield a concentration of 1 to 1,000 nmol/L was added to the 96-well plate, and the final concentration was adjusted to 0.1 to 100 nmol/L (total amount of liquid: 110 μl). Thereafter, the cells were cultured in a 5% CO2 incubator for 24 hours, the medium was then replaced, and the cells were further cultured for 24 hours.
# After the viable cell count was determined, the expression amount of Luc was quantified using a Steady Glo assay kit (Promega), and the knockdown efficiency was calculated according to the following equation. Then, the IC50 concentration at which the expression amount of Luc was knocked down to 50% was calculated.
SMILES,Particle size (nm) [1] [nm],Nucleic acid encapsulation rate [2] [%],"IC50 ([3]; Luc2-siRNA lipid particles using the compound, siRNA 0.1 to 100 nmol/L, concentration at which Luc expression is knocked down to 50%, read-out: IC50) [nM]",IC50 [3] [nM]
"CCCCC/C=C\C/C=C\CCCCCCCCN(CCCCCCCC/C=C\C/C=C\CCCCC)C(=O)OCCN(C)C [Comparative Example 3, reference compound]",72.4,80,–,> 100
"CCCCC/C=C\C/C=C\CCCCCCCCC(CCCCCCCC/C=C\C/C=C\CCCCC)OC(=O)OCCN(C)C [Comparative Example 4, 2-(Dimethylamino)ethyl((6Z,9Z,28Z,31Z)-heptatriaconta-6,9,28,31-tetraen-19-yl)carbonate, reference compound]",62.8,77,–,> 100
"CCCCCCCC/C=C\CCCCCCCC(=O)OCCCCCCC(CCCCCCOC(=O)CCCCCCC/C=C\CCCCCCCC)OC(=O)OCCN(CC)CCN(C)C [Example 36, 7-(((2-((2-(dimethylamino)ethyl)(ethyl)amino)ethoxy)carbonyl)oxy)tridecane-1,13-diyldioleate]",–,–,–,11
"CCCCCC(CCCCC)C(=O)OCCCCCCC(CCCCCCOC(=O)C(CCCCC)CCCCC)OC(=O)OCCN(CC)CCN(CC)CC [Example 60, 7-(((2-((2-(Diethylamino)ethyl)(ethyl)amino)ethoxy)carbonyl)oxy)tridecane-1,13-diylbis(2-pentylheptanoate)]",–,–,1,–
"CCCCCCC(CCCC)COC(=O)CCCCCCCCC(CCCCCC)OC(=O)OCCN(CCO)CCN(CC)CC (stereo not shown) [Example 85, 2-Butyloctyl 3-ethyl-12-hexyl-6-(2-hydroxyethyl)-10-oxo-9,11-dioxa-3,6-diazahenicosan-21-oate]",246.6,86,–,–
"CCCCCCC(CCCC)COC(=O)CCCCCCC(CCCCCC)OC(=O)OCCN(CCN(CC)CC)C(C)C (stereo not shown) [Example 92, 2-Butyloctyl 3-ethyl-12-hexyl-6-isopropyl-10-oxo-9,11-dioxa-3,6-diazanonadecan-19-oate]",90.5,73,–,–
"CCCCCCCCC(CCCCCC)COC(=O)CCCCCCCCC(CCCCCC)OC(=O)OCCN(CCO)CCN(CC)CC (stereo not shown) [Example 97, 2-Hexyldecyl 3-ethyl-12-hexyl-6-(2-hydroxyethyl)-10-oxo-9,11-dioxa-3,6-diazahenicosan-21-oate]",142,82,–,–
"CCCCCCCCC(CCCCCC)COC(=O)CCC(CCCCCC)OC(=O)OCCN(CCN(CC)CC)C(C)C (stereo not shown) [Example 114, 2-Hexyldecyl 3-ethyl-12-hexyl-6-isopropyl-10-oxo-9,11-dioxa-3,6-diazapentadecan-15-oate]",80.1,69,–,–
"CCCCCCC(CCCCCCCCC(=O)OCCC(CCCCC)CCCCC)OC(=O)OCCN(CCO)CCN(CC)CC (stereo not shown) [Example 123, 3-Pentyloctyl 3-ethyl-12-hexyl-6-(2-hydroxyethyl)-10-oxo-9,11-dioxa-3,6-diazahenicosan-21-oate]",257,66,–,–
"CCCCCCCCC(CCCCCC)COC(=O)CCCCCCCCC(CCCCC)OC(=O)OCCN(CCN(CC)CC)C(C)C (stereo not shown) [Example 127, 2-Hexyldecyl 3-ethyl-6-isopropyl-10-oxo-12-pentyl-9,11-dioxa-3,6-diazahenicosan-21-oate]",80.7,71,–,–
"CCCCCCC(CCCCCCCCC(=O)OCC(CCCCC)CCCCC)OC(=O)OCCN(CCO)CCN(CC)CC (stereo not shown) [Example 128, 2-Pentylheptyl 3-ethyl-12-hexyl-6-(2-hydroxyethyl)-10-oxo-9,11-dioxa-3,6-diazahenicosan-21-oate]",255,62,–,–

# Now from value to compound, other results behind:
Particle size (nm) [1] [nm],Nucleic acid encapsulation rate [2] [%],"IC50 ([3]; Luc2-siRNA lipid particles using the compound, siRNA 0.1 to 100 nmol/L, concentration at which Luc expression is knocked down to 50%, read-out: IC50) [nM]",SMILES,IC50 [3] [nM]
98.7,61,–,"CCCCCCC(CCCC)COC(=O)CCCC(CCCCCC)OC(=O)OCCN(CC)CCN(CC)CC (stereo not shown) [Example 80, 2-butyloctyl 3,6-diethyl-12-hexyl-10-oxo-9,11-dioxa-3,6-diazahexadecan-16-oate]",–
102.6,49,–,"CCCCCCC(CCCC)COC(=O)CCCC(CCCCCC)OC(=O)OCCN(CCN(CC)CC)C(C)C (stereo not shown) [Example 81, 2-Butyloctyl 3-ethyl-12-hexyl-6-isopropyl-10-oxo-9,11-dioxa-3,6-diazahexadecan-16-oate]",–
77,78,–,"CCCCCCCCC(CCCCCC)COC(=O)CCCC(CCCCCC)OC(=O)OCCN(CC)CCN(CC)CC (stereo not shown) [Example 82, 2-Hexyldecyl 3,6-diethyl-12-hexyl-10-oxo-9,11-dioxa-3,6-diazahexadecan-16-oate]",–
169.3,60,–,"CCCCCCC(CCCC)COC(=O)CCCCCCCCC(CCCCCC)OC(=O)OCCN(CCO)CCCN(CC)CC (stereo not shown) [Example 90, 2-Butyloctyl 3-ethyl-13-hexyl-7-(2-hydroxyethyl)-11-oxo-10,12-dioxa-3,7-diazadocosan-22-oate]",–
95.5,83,–,"CCCCCCC(CCCC)COC(=O)CCCCC(CCCCCC)OC(=O)OCCN(CCN(CC)CC)C(C)C (stereo not shown) [Example 95, 2-Butyloctyl 3-ethyl-12-hexyl-6-isopropyl-10-oxo-9,11-dioxa-3,6-diazaheptadecan-17-oate]",–
72.9,88,–,"CCCCCCCCC(CCCCCC)COC(=O)CCCCC(CCCCCC)OC(=O)OCCN(CCN(CC)CC)C(C)C (stereo not shown) [Example 96, 2-Hexyldecyl 3-ethyl-12-hexyl-6-isopropyl-10-oxo-9,11-dioxa-3,6-diazaheptadecan-17-oate]",–
88.6,69,–,"CCCCCCCC/C=C\CCCCCCCCOC(=O)CCCC(CCCCCC)OC(=O)OCCN(CCN(CC)CC)C(C)C (stereo not shown) [Example 115, (Z)-octadec-9-en-1-yl 3-ethyl-12-hexyl-6-isopropyl-10-oxo-9,11-dioxa-3,6-diazahexadecan-16-oate]",–
291,41,–,"CCCCCCCCC(CCCCCC)COC(=O)CCCCCCCCC(CCCCC)OC(=O)OCCN(CCO)CCN(CC)CC (stereo not shown) [Example 131, 2-Hexyldecyl 3-ethyl-6-(2-hydroxyethyl)-10-oxo-12-pentyl-9,11-dioxa-3,6-diazahenicosan-21-oate]",–
98.4,76,–,"CCCCCCCCC(CCCCCC)COC(=O)CCCCCCCCC(CCCCC)OC(=O)OCCN(CCOC(=O)CCCCCCC)CCN(CC)CC (stereo not shown) [Example 132, 2-Hexyldecyl 3-ethyl-6-(2-(octanoyloxy)ethyl)-10-oxo-12-pentyl-9,11-dioxa-3,6-diazahenicosan-21-oate]",–
